Source: article PMC9364363 (RSC Advances, 2022)
Values after ≈ are worked out from the molar mass of the structure shown. Read-outs that look alike come from different tables or passages of the source.

What was measured:
[1] = test system: Mtb H37Ra^lux; test: microbe, parasite or virus in culture; type: cell-based, Mycobacterium tuberculosis; settings: for IC50: read-out: Mtb H37Ra^lux IC50; for MIC: read-out: Mtb H37Ra^lux IC90 (MIC)
[2] = in vitro; settings: human
[3] = test system: M. abscessus; test: microbe, parasite or virus in culture; type: cell-based, Mycobacterium abscessus; settings: Mycobacteroides abscessus, 72 h, read-out: IC50 M. abscessus
[4] = test system: M. intracellulare; test: microbe, parasite or virus in culture; type: cell-based, Mycobacterium intracellulare; settings: Mycobacterium intracellulare, 168 h, read-out: IC50 M. intracellulare
[5] = test system: M. avium subsp. avium; test: microbe, parasite or virus in culture; type: cell-based, Mycobacterium avium subsp. avium; settings: Mycobacterium avium, 168 h, read-out: IC50 M. avium subsp. avium
[6] = test system: MRC-5 lung fibroblast cell line
[7] = Mycobacterium tuberculosis, H37RA, 168 h

Row | Compound | IC50 [1, 7] [µM] | MIC [1, 7] [µM] | CC50 [2] [µM] | IC50 [3] [µM] | IC50 [4] [µM] | IC50 [5] [µM] | T.I. CC50/IC50 [6] | Mtb H37Ra^lux IC90 (MIC) [1] [µM] | IC50 [1] [µM]
1 | NNC(=O)c1ccncc1 [INH, isoniazid, reference compound] | 0.04 | 0.09 (≈ 0.0123 µg/mL) |  |  |  |  |  |  | 
2 | CCCCc1cn(CCN2CCN(C(=O)c3c(C)nc4sccn34)CC2)nn1 [IT01, (4-(2-(4-Butyl-1H-1,2,3-triazol-1-yl)-ethyl)-piperazin-1-yl)(6-methylimidazo-[2,1-b]-thiazol-5-yl)-methanone] | 6.12 | 52 (≈ 20.9 µg/mL) |  |  |  |  |  |  | 
3 | Cc1nc2sccn2c1C(=O)N1CCN(CCn2cc(-c3ccc(C(C)(C)C)cc3)nn2)CC1 [IT02, (4-(2-(4-(4-(tert-Butyl)phenyl)-1H-1,2,3-triazol-1-yl)-ethyl)-piperazin-1-yl)(6-methylimidazo-[2,1-b]-thiazol-5-yl)-methanone] | 5.2 | 12.8 (≈ 6.13 µg/mL) | 46 | > 128 | 119 | 126 | 8.8 |  | 
4 | CCCCCCCCCc1cn(CCN2CCN(C(=O)c3c(C)nc4sccn34)CC2)nn1 [IT03, (6-Methylimidazo-[2,1-b]-thiazol-5-yl)(4-(2-(4-nonyl-1H-1,2,3-triazol-1-yl)-ethyl)-piperazin-1-yl)-methanone] | 2.88 | 10.2 (≈ 4.82 µg/mL) | 45.5 | > 128 | 63.4 | > 128 | 15.8 |  | 
5 | Cc1nc2sccn2c1C(=O)N1CCN(CCn2cc(CSc3nc4ccccc4[nH]3)nn2)CC1 [IT04, (4-(2-(4-(((1H-Benzo-[d]-imidazole-2-yl)-thio)-methyl)-1H-1,2,3-triazol-1-yl)-ethyl)-piperazin-1-yl)(6-methylimidazo-[2,1-b]-thiazol-5-yl)-methanone] | 3.94 | 14.6 (≈ 7.41 µg/mL) | > 128 | > 128 | > 128 | > 128 | 32.5 |  | 
6 | Cc1nc2sccn2c1C(=O)N1CCN(CCn2cc(COc3ccc(Cl)cn3)nn2)CC1 [IT05, (4-(2-(4-(((5-Chloropyridin-2-yl)-oxy)-methyl)-1H-1,2,3-triazol-1-yl)ethyl)-piperazin-1-yl)(6-methylimidazo-[2,1-b]-thiazol-5-yl)-methanone] | 49.6 | > 128 |  |  |  |  |  |  | 
7 | Cc1nc2sc3ccccc3n2c1C(=O)N1CCN(Cc2cn(-c3ccc(Cl)cc3Cl)nn2)CC1 [IT06, (4-((1-(2,4-Dichlorophenyl)-1H-1,2,3-triazol-4-yl)-methyl)-piperazin-1-yl)(2-methylbenzo-[d]-imidazo-[2,1-b]-thiazol-3-yl)-methanone] | 2.03 | 15.2 (≈ 8.01 µg/mL) |  |  |  |  |  |  | 
8 | COc1cccc(-n2cc(CN3CCN(C(=O)c4c(C)nc5sc6ccccc6n45)CC3)nn2)c1 [IT07, (4-((1-(3-Methoxyphenyl)-1H-1,2,3-triazol-4-yl)-methyl)-piperazin-1-yl)(2-methylbenzo-[d]-imidazo-[2,1-b]-thiazol-3-yl)-methanone] | 7.27 | 15.4 (≈ 7.49 µg/mL) |  |  |  |  |  |  | 
9 | Cc1nc2sc3ccccc3n2c1C(=O)N1CCN(Cc2cn(-c3cccc([N+](=O)[O-])c3)nn2)CC1 [IT08, (2-Methylbenzo-[d]-imidazo-[2,1-b]-thiazol-3-yl)(4-((1-(3-nitrophenyl)-1H-1,2,3-triazol-4-yl)-methyl)-piperazin-1-yl)-methanone] | 2.96 | 11.8 (≈ 5.94 µg/mL) | > 128 | > 128 | > 128 | > 128 | 43.2 |  | 
10 | Cc1ccc(-n2cc(CN3CCN(C(=O)c4c(C)nc5sc6ccccc6n45)CC3)nn2)cc1C [IT09, (4-((1-(3,4-Dimethylphenyl)-1H-1,2,3-triazol-4-yl)-methyl)-piperazin-1-yl)(2-methylbenzo-[d]-imidazo-[2,1-b]-thiazol-3-yl)-methanone] | 3.46 | 13.5 (≈ 6.55 µg/mL) | > 128 | > 128 | > 128 | > 128 | 37.0 |  | 
11 | Cc1nc2sc3ccccc3n2c1C(=O)N1CCN(Cc2cn(-c3ccc([N+](=O)[O-])cc3)nn2)CC1 [IT10, (2-Methylbenzo-[d]-imidazo-[2,1-b]-thiazol-3-yl)(4-((1-(4-nitrophenyl)-1H-1,2,3-triazol-4-yl)-methyl)-piperazin-1-yl)-methanone] | 2.32 | 7.05 (≈ 3.54 µg/mL) | > 128 | > 128 | > 128 | > 128 | 55.2 |  | 
12 | Cc1nc2sc3ccccc3n2c1C(=O)N1CCN(Cc2cn(-c3cccc(Cl)c3)nn2)CC1 [IT11, (4-((1-(3-Chlorophenyl)-1H-1,2,3-triazol-4-yl)-methyl)-piperazin-1-yl)(2-methylbenzo-[d]-imidazo-[2,1-b]-thiazol-3-yl)-methanone] | 3.86 | 14.5 (≈ 7.11 µg/mL) | 29.4 | > 128 | 98.8 | 100 | 7.6 |  | 
13 | CCCCc1cn(CCN2CCN(C(=O)c3c(C)nc4sc5ccccc5n34)CC2)nn1 [IT12, (4-(2-(4-Butyl-1H-1,2,3-triazol-1-yl)-ethyl)-piperazin-1-yl)(2-methylbenzo-[d]-imidazo-[2,1-b]-thiazol-3-yl)-methanone] | 43.7 | 62.8 (≈ 28.3 µg/mL) |  |  |  |  |  |  | 
14 | CCCCCCCCCc1cn(CCN2CCN(C(=O)c3c(C)nc4sc5ccccc5n34)CC2)nn1 [IT14, (2-methylbenzo-[d]-imidazo-[2,1-b]-thiazol-3-yl)(4-(2-(4-nonyl-1H-1,2,3-triazol-1-yl)-ethyl)-piperazin-1-yl)-methanone] | 13.1 | 28 (≈ 14.6 µg/mL) |  |  |  |  |  |  | 
15 | Cc1nc2sc3ccccc3n2c1C(=O)N1CCN(CCn2cc(-c3ccccc3)nn2)CC1 [IT15, (2-Methylbenzo-[d]-imidazo-[2,1-b]-thiazol-3-yl)(4-(2-(4-phenyl-1H-1,2,3-triazol-1-yl)-ethyl)-piperazin-1-yl)-methanone] | 12.2 | 27.2 (≈ 12.8 µg/mL) |  |  |  |  |  |  | 
16 | Cc1nc2sc3ccccc3n2c1C(=O)N1CCN(CCn2cc(C3CC3)nn2)CC1 [IT18, (4-(2-(4-Cyclopropyl-1H-1,2,3-triazol-1-yl)-ethyl)-piperazin-1-yl)(2-methylbenzo-[d]-imidazo-[2,1-b]-thiazol-3-yl)-methanone] | 29.1 | 63.8 (≈ 27.8 µg/mL) |  |  |  |  |  |  | 
17 | Cc1nc2sccn2c1C(=O)N1CCN(CCn2cc(C3CC3)nn2)CC1 [IT19, (4-(2-(4-Cyclopropyl-1H-1,2,3-triazol-1-yl)-ethyl)-piperazin-1-yl)(6-methylimidazo-[2,1-b]-thiazol-5-yl)-methanone] | > 128 | > 128 |  |  |  |  |  |  | 
18 | Cc1nc2sccn2c1C(=O)N1CCN(CCn2cc(-c3ccccc3)nn2)CC1 [IT20, (6-Methylimidazo-[2,1-b]-thiazol-5-yl)(4-(2-(4-phenyl-1H-1,2,3-triazol-1-yl)-ethyl)-piperazin-1-yl)-methanone] | 20.6 | 54.9 (≈ 23.2 µg/mL) |  |  |  |  |  |  | 
19 | Cc1nc2sccn2c1C(=O)N1CCN(Cc2cn(-c3ccc(Br)cc3)nn2)CC1 [IT21, (4-((1-(4-Bromophenyl)-1H-1,2,3-triazol-4-yl)-methyl)-piperazin-1-yl)(6-methylimidazo-[2,1-b]-thiazol-5-yl)-methanone] | 20.7 | 53 (≈ 25.8 µg/mL) |  |  |  |  |  |  | 
20 | Cc1nc2sccn2c1C(=O)N1CCN(Cc2cn(-c3ccc(F)c(Cl)c3)nn2)CC1 [IT22, (4-((1-(3-Chloro-4-fluorophenyl)-1H-1,2,3-triazol-4-yl)-methyl)-piperazin-1-yl)(6-methylimidazo-[2,1-b]-thiazol-5-yl)-methanone] | 5.28 | 57.8 (≈ 26.6 µg/mL) |  |  |  |  |  |  | 
21 | Cc1nc2sccn2c1C(=O)N1CCN(Cc2cn(-c3cccc([N+](=O)[O-])c3)nn2)CC1 [IT23, (6-Methylimidazo-[2,1-b]-thiazol-5-yl)(4-((1-(3-nitrophenyl)-1H-1,2,3-triazol-4-yl)-methyl)-piperazin-1-yl)-methanone] | 43.8 | 84.8 (≈ 38.4 µg/mL) |  |  |  |  |  |  | 
22 | Cc1ccc(-n2cc(CN3CCN(C(=O)c4c(C)nc5sccn45)CC3)nn2)cc1C [IT24, (4-((1-(3,4-Dimethylphenyl)-1H-1,2,3-triazol-4-yl)-methyl)-piperazin-1-yl)(6-methylimidazo-[2,1-b]-thiazol-5-yl)-methanone] | 19.8 | 48.8 (≈ 21.2 µg/mL) |  |  |  |  |  |  | 
23 | Cc1nc2sccn2c1C(=O)N1CCN(Cc2cn(-c3ccc([N+](=O)[O-])cc3)nn2)CC1 [IT25, (6-Methylimidazo-[2,1-b]-thiazol-5-yl)(4-((1-(4-nitrophenyl)-1H-1,2,3-triazol-4-yl)-methyl)-piperazin-1-yl)-methanone] | 23.1 | 51.4 (≈ 23.2 µg/mL) |  |  |  |  |  |  | 
24 | Cc1nc2sccn2c1C(=O)N1CCN(Cc2cn(-c3ccccc3Cl)nn2)CC1 [IT26, (4-((1-(2-Chlorophenyl)-1H-1,2,3-triazol-4-yl)-methyl)-piperazin-1-yl)(6-methylimidazo-[2,1-b]-thiazol-5-yl)-methanone] | 30.2 | 62.1 (≈ 27.5 µg/mL) |  |  |  |  |  |  | 
25 | COc1cccc(-n2cc(CN3CCN(C(=O)c4c(C)nc5sccn45)CC3)nn2)c1 [IT27, (4-((1-(3-Methoxyphenyl)-1H-1,2,3-triazol-4-yl)-methyl)-piperazin-1-yl)(6-methylimidazo-[2,1-b]-thiazol-5-yl)-methanone] | 46 | 98.1 (≈ 42.9 µg/mL) |  |  |  |  |  |  | 
26 | CC/C(=C(\c1ccccc1)c1ccc(OCCN(C)C)cc1)c1ccccc1 [Tamoxifen, reference compound] |  |  | 12.4 |  |  |  |  |  | 
27 | (4-(2-(4-((5-Chloropyridin-2-yl)oxy)-1H-1,2,3-triazol-1-yl)-ethyl)-piperazin-1-yl)(2-methylbenzo-[d]-imidazo-[2,1-b]-thiazol-3-yl)-methanone [IT17] |  |  |  |  |  |  |  | 115.57 | 19.7
